Here are results for one molecule from paper PMC5131310, “Discovery of piperonal-converting oxidase involved in the metabolism of a botanical aromatic aldehyde” (Scientific Reports, 2016).

The target of this experiment is T1, piperonal-converting enzyme (PceSML), FAD site on PceM (Burkholderia sp. CT39-3, UniProt A0A1L7N251).
T1 construct: same recombinant complex as P1 (N-terminal His tag on PceS, host Burkholderia sp. CT39-3); with Piperonal-converting enzyme large subunit (PceL); Piperonal-converting enzyme small subunit (PceS)
T1 sequence (A0A1L7N251 1-334): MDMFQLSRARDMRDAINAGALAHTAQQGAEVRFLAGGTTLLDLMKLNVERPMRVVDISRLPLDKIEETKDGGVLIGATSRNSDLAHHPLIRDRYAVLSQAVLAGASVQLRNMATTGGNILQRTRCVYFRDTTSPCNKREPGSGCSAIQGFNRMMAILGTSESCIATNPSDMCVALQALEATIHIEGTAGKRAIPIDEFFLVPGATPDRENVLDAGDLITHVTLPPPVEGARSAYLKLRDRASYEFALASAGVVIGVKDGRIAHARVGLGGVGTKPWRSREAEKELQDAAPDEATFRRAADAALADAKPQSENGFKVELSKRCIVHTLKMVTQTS
T1 sequence (A0A1L7N257 1-740 partner): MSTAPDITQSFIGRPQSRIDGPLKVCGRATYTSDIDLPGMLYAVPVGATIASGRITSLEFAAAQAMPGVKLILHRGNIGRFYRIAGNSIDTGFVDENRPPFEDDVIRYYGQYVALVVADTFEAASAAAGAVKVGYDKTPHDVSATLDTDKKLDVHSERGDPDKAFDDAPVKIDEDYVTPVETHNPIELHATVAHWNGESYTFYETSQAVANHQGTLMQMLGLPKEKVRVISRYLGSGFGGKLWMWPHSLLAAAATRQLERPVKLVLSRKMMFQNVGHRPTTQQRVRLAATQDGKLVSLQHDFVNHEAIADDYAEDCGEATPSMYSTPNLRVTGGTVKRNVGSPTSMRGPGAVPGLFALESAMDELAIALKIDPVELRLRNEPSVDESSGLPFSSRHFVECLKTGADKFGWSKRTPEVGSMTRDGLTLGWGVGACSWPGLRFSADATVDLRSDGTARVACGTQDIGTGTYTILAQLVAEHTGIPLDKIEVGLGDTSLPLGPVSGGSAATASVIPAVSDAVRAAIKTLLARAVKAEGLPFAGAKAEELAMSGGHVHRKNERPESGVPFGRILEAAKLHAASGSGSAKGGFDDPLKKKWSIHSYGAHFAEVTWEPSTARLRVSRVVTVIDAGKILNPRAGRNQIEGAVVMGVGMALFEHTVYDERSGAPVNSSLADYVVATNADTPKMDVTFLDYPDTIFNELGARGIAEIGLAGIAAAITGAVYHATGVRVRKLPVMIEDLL
T1 sequence (A0A1L7N258 1-185 partner): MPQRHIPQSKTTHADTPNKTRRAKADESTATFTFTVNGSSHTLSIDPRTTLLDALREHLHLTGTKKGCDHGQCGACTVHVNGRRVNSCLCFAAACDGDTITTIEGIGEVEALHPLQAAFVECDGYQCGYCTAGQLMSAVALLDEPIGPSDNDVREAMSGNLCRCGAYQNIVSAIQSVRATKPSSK
Briefly: HPLC of flavin released from purified enzyme by HClO4. Format: binding. The note with it: as-purified cofactor.

On to `Cc1cc2nc3c(=O)[nH]c(=O)nc-3n(C[C@H](O)[C@H](O)[C@H](O)COP(=O)(O)OP(=O)(O)OC[C@H]3O[C@@H](n4cnc5c(N)ncnc54)[C@H](O)[C@@H]3O)c2cc1C` [FAD], for which the “HPLC of flavin released from purified enzyme by HClO4” value is on record as “FAD was identified as the flavin cofactor (Fig. 3A)”.
